Measurements: patent publication US20020115669A1 (published 2002)

CC(=O)NC[C@H]1CN(c2ccc(/C=C(\Br)c3ccc(C(C)=O)s3)c(F)c2)C(=O)O1
melting point: 187 to 190 °C (dec.)
